# In patent publication US5162373A, “Methods and improved formulations for the determination and treatment of malignant disease in patients” (priority 1989, dated 1992):
# Legend:
# platelets = settings: rat, in vivo
# [1] = set-up: species or system human (patients with advanced colorectal carcinoma); settings: human, in vivo
# From the text: FIG. 4. Platelet counts plotted against days of continuous i.v. DFMO infusion in patients with advanced colorectal carcinoma. […] The paired points are connected by a straight line.
# There was no incidence of nausea, vomiting or diarrhea.
# [2] = test system: tumor putrescine; MCA sarcoma
# [3] = Toxicity of continuous i.v. DFMO infusion in rats (FIG. 3); assay type: in vivo, rat; settings: 12 days; 500-2000 mg/kg/day
# From the text: FIG. 3. […] Bars indicate standard deviation.
# In the above described rat model, a continuous infusion of DFMO was given through a central venous catheter.
# [4] = test system: intestinal epithelium / gut mucosa; settings: cited from earlier work
# [5] = test system: intestinal epithelium / gut mucosa; assay: Trophic/protective effect on intestinal epithelium, other studies; assay type: in vivo; settings: doses as high as 20 g/L
smiles,measurement,setting,value
"NCCCC(N)(C(=O)O)C(F)F (stereo not shown) [DFMO, Difluoromethylornithine]","platelet suppression, in words",platelets,significant decrease in platelet count as compared with the saline treatment
same,White cell count,[1],not affected by either dose
same,decreased hearing acuity,[1],two patients who experienced decreased hearing acuity
same,hematocrit,[1],Significant suppression of the hematocrit
same,"nausea, vomiting or diarrhea",[1],no incidence
same,platelet suppression,[1],significant at both doses
same,"platelet suppression, 8 g vs 6 g dose",[1],significantly greater platelet suppression at the 8 g dose as compared with the 6 g dose
same,resolution of toxicities after discontinuing infusion,[1],resolved spontaneously within two weeks
same,decrease in tumor putrescine levels,[2]; DFMO infusion,90%
same,growth of MCA sarcoma,"[2]; rat, in vivo",reduces the growth rate of an MCA sarcoma but does not produce tumor regression
same,peripheral platelet counts,"[2]; rat, in vivo",without suppressing peripheral platelet counts
same,clinical toxicity,[3],no significant clinical toxicity
"NC(=O)CC[C@H](N)C(=O)O [glutamine, L-glutamine]","gut epithelium, glutamine added to TPN",[4]; 10-20 g/L,restores gut epithelium
same,transmucosal migration of bacteria into mesenteric lymph nodes,[4]; compared with glutamine deficient formulas,present transmucosal migration of bacteria into mesenteric lymph nodes
same,protection of gut mucosa,"[4]; oral, rats receiving toxic doses of 5FU or methotrexate",protected the gut mucosa
same,trophic effect on intestinal epithelium,[5],"trophic effect on intestinal epithelium, especially the ileum"
NCCCCN [putrescine],colonic DNA and protein content,[4]; about 50 micromole/100 gram body weight,increases in colonic DNA and protein content
same,DNA and RNA content and protein in ileum,[4]; putrescine about 1 micromole,increased DNA and RNA content and protein
same,mucosal proliferation,[4]; putrescine: intraluminal infusion,stimulation of mucosal proliferation
